Results from patent US9328138B2 (priority 2011, dated 2016).

Columns and labels:
[1] = biological target: T1, HCV genotype 1b (BK) NS3 modified enzyme with a R155K mutation (Hepatitis C virus genotype 1b, UniProt P26663, R1181K); assay: HCV NS3 protease time-resolved fluorescence (TRF) assay, genotype 1b R155K; assay type: biochemical; details: Ki 1b R155K, genotype 1b (BK) NS3 R155K; single value
T1 construct: HCV genotype 1b (BK) NS3 modified enzyme
How it was run: (§1)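 Inhibitor titrations are mixed with NS3/NS4A in pH 7.5 HEPES buffer containing 10 mM DTT and 15% glycerol for 10 min before substrate (25 nM final) is added. After 6 h at room temperature, delayed fluorescence is read and fitted to a four-parameter curve for IC50.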

[2] = biological target: HCV NS3 protease genotype 3a (3A-1) (Hepatitis C virus genotype 3a, UniProt Q81258); assay: HCV NS3 protease time-resolved fluorescence (TRF) assay, genotype 3a; assay type: biochemical; details: Ki 3a
How it was run: as §1

| SMILES | Ki [1] | Ki [2] |
| --- | --- | --- |
| C=C[C@@H]1C[C@]1(NC(=O)[C@@H]1C[C@@H]2CN1C(=O)[C@H](C(C)(C)C)NC(=O)O[C@@H]1C[C@H]1CCCCCc1c(nc3cc(C(C)C)ccc3c1OCCCN1C[C@@H]3C[C@H]1CO3)O2)C(=O)NS(=O)(=O)C1(C)CC1 [Example 164, (1aR,5S,8S,10R,22aR)-5-tert-butyl-N-[(1R,2S)-2-ethenyl-1-{[(1-methylcyclopropyl)sulfonyl]carbamoyl}cyclopropyl]-17-{3-[(1S,4S)-2-oxa-5-azabicyclo[2.2.1]hept-5-yl]propoxy}-3,6-dioxo-14-(propan-2-yl)-1,1a,3,4,5,6,9,10,18,19,20, 21,22,22a-tetradecahydro-8H-7,10-methanocyclopropa[18,19][1,10,3,6] dioxadiazacyclononadecino [11,12-b]quinoline-8-carboxamide] | 0.096 nM | 1.2 nM |
| C=C[C@@H]1C[C@]1(NC(=O)[C@@H]1C[C@@H]2CN1C(=O)[C@H](C1CCCCC1)NC(=O)O[C@@H]1C[C@H]1CCCCCc1c(nc3ccccc3c1OCCCN1CCN(S(C)(=O)=O)CC1)O2)C(=O)NS(=O)(=O)C1(C)CC1 [Example 165, (1aR,5S,8S,10R,22aR)-5-cyclohexyl-N-[(1R,2S)-2-ethenyl-1-{[(1-methylcyclopropyl)sulfonyl]carbamoyl}cyclopropyl]-17-{3-[4-(methylsulfonyl)piperazin-1-yl]propoxy}-3,6-dioxo-1,1a,3,4,5,6,9,10, 18,19,20,21,22,22a-tetradecahydro-8H-7,10-methanocyclopropa[18,19][1,10,3,6] dioxadiazacyclononadecino[11,12-b] quinoline-8-carboxamide] | 0.24 nM | 2.8 nM |
| C=C[C@@H]1C[C@]1(NC(=O)[C@@H]1C[C@@H]2CN1C(=O)[C@H](C1CCCCC1)NC(=O)O[C@@H]1C[C@H]1CCCCCc1c(nc3ccccc3c1OCCCN1CCC(S(C)(=O)=O)C1)O2)C(=O)NS(=O)(=O)C1(C)CC1 (stereo partly drawn) [Example 166, (1aR,5S,8S,10R,22aR)-5-cyclohexyl-N-[(1R,2S)-2-ethenyl-1-{[(1-methylcyclopropyl)sulfonyl]carbamoyl}cyclopropyl]-17-{3-[3-(methylsuflonyl)pyrrolidin-1-yl]propoxy}-3,6-dioxo-1,1a,3,4,5,9,10, 18,19,20,21,22,22a-tetradecahydro-8H-7,10-methanocyclopropa[18,19][1,10,3,6] dioxadiazacyclononadecino[11,12-b] quinoline-8-carboxamide] | 0.11 nM | 2.2 nM |
| C=C[C@@H]1C[C@]1(NC(=O)[C@@H]1C[C@@H]2CN1C(=O)[C@H](C1CCCCC1)NC(=O)O[C@@H]1C[C@H]1CCCCCc1c(nc3ccccc3c1OCCCN1CCC(C(F)(F)F)CC1)O2)C(=O)NS(=O)(=O)C1(C)CC1 [Example 167] | 1.3 nM | 41 nM |
| C=C[C@@H]1C[C@]1(NC(=O)[C@@H]1C[C@@H]2CN1C(=O)[C@H](C1CCCCC1)NC(=O)O[C@@H]1C[C@H]1CCCCCc1c(nc3ccccc3c1OCCCN1CCCOCC1)O2)C(=O)NS(=O)(=O)C1(C)CC1 [Example 168, (1aR,5S,8S,10R,22aR)-5-cyclohexyl-N-[(1R,2S)-2-ethenyl-1-{[(1-methylcyclopropyl)sulfonyl]carbamoyl}cyclopropyl]-17-[3-(1,4-oxazepan-4-yl)propoxy]-3,6-dioxo-1,1a,3,4,5,6,9,10,18,19,20,21, 22,22a-tetradeca hydro-8H-7,10-methanocyclopropa[18,19][1,10,3,6] dioxadiazacyclononadecino[11,12-b] quinoline-8-carboxamide] | 0.078 nM | 1.3 nM |
| C=C[C@@H]1C[C@]1(NC(=O)[C@@H]1C[C@@H]2CN1C(=O)[C@H](C1CCCCC1)NC(=O)O[C@@H]1C[C@H]1CCCCCc1c(nc3ccccc3c1OCCCN1CC[C@@H](O)C1)O2)C(=O)NS(=O)(=O)C1(C)CC1 [Example 169, (1aR,5S,8S,10R,22aR)-5-cyclohexyl-N-[(1R,2S)-2-ethenyl-1-{[(1-methylcyclopropyl)sulfonyl]carbamoyl}cyclopropyl]-17-{3-[(3R)-3-hydroxypyrrolidin-1-yl]propoxy}-3,6-dioxo-1,1a,3,4,5,6,9,10, 18,19,20,21,22,22a-tetradeca hydro-8H-7,10-methanocyclopropa[18,19][1,10,3,6] dioxadiazacyclononadecino[11,12-b] quinoline-8-carboxamide] | 0.042 nM | 0.75 nM |
| C=C[C@@H]1C[C@]1(NC(=O)[C@@H]1C[C@@H]2CN1C(=O)[C@H](C1CCCCC1)NC(=O)O[C@@H]1C[C@H]1CCCCCc1c(nc3ccccc3c1OCCCN1CCC(F)(F)CC1)O2)C(=O)NS(=O)(=O)C1(C)CC1 [Example 170] | 1.1 nM | 21 nM |
| C=C[C@@H]1C[C@]1(NC(=O)[C@@H]1C[C@@H]2CN1C(=O)[C@H](C1CCCCC1)NC(=O)O[C@@H]1C[C@H]1CCCCCc1c(nc3ccccc3c1OCCCSc1nncn1C)O2)C(=O)NS(=O)(=O)C1(C)CC1 [Example 171, (1aR,5S,8S,10R,22aR)-5-cyclohexyl-N-[(1R,2S)-2-ethenyl-1-{[(1-methylcyclopropyl)sulfonyl]carbamoyl}cyclopropyl]-17-{3-[(4-methyl-4H-1,2,4-triazol-3-yl)sulfanyl]propoxy}-3,6-dioxo-1,1a,3,4,5,6,9,10, 18,19,20,21,22,22a-tetradecahydro-8H-7,10-methanocyclopropa[18,19][1,10,3,6] dioxadiazacyclononadecino[11,12-b] quinoline-8-carboxamide] | 0.099 nM | 2 nM |
| C=C[C@@H]1C[C@]1(NC(=O)[C@@H]1C[C@@H]2CN1C(=O)[C@H](C1CCCCC1)NC(=O)O[C@@H]1C[C@H]1CCCCCc1c(nc3ccccc3c1OCCCSc1nccs1)O2)C(=O)NS(=O)(=O)C1(C)CC1 [Example 172] | 1.1 nM | 14 nM |
| C=C[C@@H]1C[C@]1(NC(=O)[C@@H]1C[C@@H]2CN1C(=O)[C@H](C(C)(C)C)NC(=O)O[C@@H]1C[C@H]1CCCCCc1c(nc3ccccc3c1OCCN1CCOC(C)(C)C1)O2)C(=O)NS(=O)(=O)C1(C)CC1 [Example 173, (1aR,5S,8S,10R,22aR)-5-tert-butyl-17-[2-(2,2-dimethylmorpholin-4-yl)ethoxy]-N-[(1R,2S)-2-ethenyl-1-{[(1-methylcyclopropyl)sulfonyl]carbamoyl}cyclopropyl]-3,6-dioxo-1,1a,3,4,5,6,9,10,18,19,20,21, 22,22a-tetradecahydro-8H-7,10-methanocyclopropa[18,19][1,10,3,6] dioxadiazacyclononadecino[11,12-b] quinoline-8-carboxamide] | 0.34 nM | 9.5 nM |
| C=C[C@@H]1C[C@]1(NC(=O)[C@@H]1C[C@@H]2CN1C(=O)[C@H](C(C)(C)C)NC(=O)O[C@@H]1C[C@H]1CCCCCc1c(nc3ccccc3c1OCCN1CC(O)C1)O2)C(=O)NS(=O)(=O)C1(C)CC1 [Example 174, (1aR,5S,8S,10R,22aR)-5-tert-butyl-N-[(1R,2S)-2-ethenyl-1-{[(1-methylcyclopropyl)sulfonyl]carbamoyl}cyclopropyl]-17-[2-(3-hydroxyazetidin-1-yl)ethoxy]-3,6-dioxo-1,1a,3,4,5,6,9,10,18,19,20,21,22,22a-tetradecahydro-8H-7,10-methanocyclopropa[18,19][1,10,3,6] dioxadiazacyclononadecino[11,12-b] quinoline-8-carboxamide] | 0.057 nM | 1.1 nM |
| C=C[C@@H]1C[C@]1(NC(=O)[C@@H]1C[C@@H]2CN1C(=O)[C@H](C(C)(C)C)NC(=O)O[C@@H]1C[C@H]1CCCCCc1c(nc3ccccc3c1OCCN1CCC(C)(O)CC1)O2)C(=O)NS(=O)(=O)C1(C)CC1 [Example 175, (1aR,5S,8S,10R,22aR)-5-tert-butyl-N-[(1R,2S)-2-ethenyl-1-{[(1-methylcyclopropyl)sulfonyl]carbamoyl}cyclopropyl]-17-[2-(4-hydroxy-4-methylpiperidin-1-yl)ethoxy]-3,6-dioxo-1,1a,3,4,5,6,9,10,18,19,20,21,22,22a-tetradeca hydro-8H-7,10-methanocyclopropa[18,19][1,10,3,6] dioxadiazacyclononadecino[11,12-b] quinoline-8-carboxamide] | 0.091 nM | 0.89 nM |
| C=C[C@@H]1C[C@]1(NC(=O)[C@@H]1C[C@@H]2CN1C(=O)[C@H](C(C)(C)C)NC(=O)O[C@@H]1C[C@H]1CCCCCc1c(nc3ccccc3c1OCCN1CCS(=O)(=O)CC1)O2)C(=O)NS(=O)(=O)C1(C)CC1 [Example 176, (1aR,5S,8S,10R,22aR)-5-tert-butyl-17-[2-(1,1-dioxidothiomorpholin-4-yl)ethoxy]-N-[(1R,2S)-2-ethenyl-1-{[(1-methylcyclopropyl)sulfonyl]carbamoyl}cyclopropyl]-3,6-dioxo-1,1a,3,4,5,6,9,10,18,19,20,21,22,22a-tetradecachydro-8H-7,10-methanocyclopropa[18,19][1,10,3,6] dioxadiazacyclononadecino[11,12-b] quinoline-8-carboxamide] | 0.1 nM | 1.3 nM |
| C=C[C@@H]1C[C@]1(NC(=O)[C@@H]1C[C@@H]2CN1C(=O)[C@H](C(C)(C)C)NC(=O)O[C@@H]1C[C@H]1CCCCCc1c(nc3ccccc3c1OCCNC(C)(C)C)O2)C(=O)NS(=O)(=O)C1(C)CC1 [Example 177, (1aR,5S,8S,10R,22aR)-5-tert-butyl-17-[2-(tert-butylamino)ethoxy]-N-[(1R,2S)-2-ethenyl-1-{[(1-methylcyclopropyl)sulfonyl]carbamoyl}cyclopropyl]-3,6-dioxo-1,1a,3,4,5,6,9,10, 18,19,20,21,22,22a-tetradeca hydro-8H-7,10-methanocyclopropa[18,19][1,10,3,6] dioxadiazacyclononadecino[11,12-b] quinoline-8-carboxamide] | 0.14 nM | 1.1 nM |
